Source: article PMC10482267, “Safety, tolerability, pharmacokinetics, and pharmacodynamics of single and multiple doses of aficamten in healthy Chinese participants: a randomized, double-blind, placebo-controlled, phase 1 study” (Frontiers in Pharmacology, 2023)
Values joined by “and” are separate entries in the source; they are usually repeats but may differ in a detail not shown here. Identical values can stand only once. Like-named read-outs stand apart in the source and are kept apart here.

Test: Plasma pharmacokinetics of aficamten and metabolites after single and multiple oral doses, phase 1 study
Format: in vivo, human
Settings: for AR_AUC (accumulation ratio based on AUC0-24) / AR_Cmax (accumulation ratio based on Cmax): day 14 vs day 1; for Tmax / AUC(0-inf) / AUC(0-t) / Cmax / half-life: human
Description: This was a double-blind, randomized, placebo-controlled, phase 1 study including SAD and MD dose cohorts (Figure 1). […] For the second single-dose cohort, 20 mg was chosen as the escalated dose according to the dosing plan scheduled in the phase 3 study (CY 6031: NCT05186818). Furthermore, a multiple oral dose of 5 mg once daily (QD) was selected to explore the steady-state PK exposure in Chinese participants and to compare the findings with the MAD 5 mg QD results in the study CY 6011.
A total of 28 participants were enrolled in the study, with eight participants per SAD cohort (10 mg and 20 mg) and 12 participants in the MD cohort (5 mg). The sample size chosen for this study was based on other precedent PK studies of similar nature and was not based on power calculations. In each SAD cohort, eight eligible participants were randomized in 3:1 ratio to receive a single oral dose of aficamten or the matching placebo after overnight fasting. The dose escalation criteria (see Supplementary File S1) had to be met to proceed from the SAD 10 mg cohort to the SAD 20 mg cohort. In addition, the SAD 20 mg cohort started at least 5 days after the last subject’s administration in the SAD 10 mg cohort. Upon the completion of the SAD 20 mg cohort, the study proceeded to the MD 5 mg cohort when the dose escalation criteria were met. The MD cohort started at least 5 days later after the last subject’s administration in the SAD 20 mg cohort. In the MD cohort, 12 eligible participants were enrolled and randomized in 3:1 ratio to receive multiple oral doses of 5 mg of aficamten or the matching placebo under fasting conditions for 14 days. The investigator would determine if stopping rules (see Supplementary File S2) were met in this cohort.
Blood samples (4 mL) for plasma PK analysis of aficamten and its metabolites (mono-hydroxylated derivative CK-3834282 and its diastereomer CK-3834283) were collected into K2EDTA tubes in the SAD cohorts at the following time points: at pre-dose and at 0.25, 0.5, 1, 1.5, 2, 2.5, 3, 4, 6, 8, 12, 16, 24, 36, 48, 72, 96, and 216 h post-dose. In the MD cohort, blood samples were collected at pre-dose and at 0.25, 0.5, 1, 1.5, 2, 2.5, 3, 4, 6, 8, 12, and 16 h post-dose on day 1; at pre-dose and at 1.5 h post-dose on day 2, days 4–6, and day 9; at pre-dose on day 3, days 7–8, and days 10–13; at pre-dose and at 0.25, 0.5, 1, 1.5, 2, 2.5, 3, 4, 6, 8, 12, 16, 24, 36, 48, 72, 168, and 216 h post-dose on day 14. After collection, blood samples were centrifuged at 1700 g for 10 min at 4°C ± 2°C; plasma was aliquoted and stored at −80°C ± 20°C until analyzed. Meanwhile, samples for urine PK analysis of aficamten were collected in the MD cohort as follows: pre-dose, 0–4 h, 4–8 h, 8–12 h, and 12–24 h on days 1 and 14, respectively.
The samples were determined using a validated ultra-performance liquid chromatography-tandem mass spectrometry (UPLC-MS/MS) method. The detection was performed on a tandem mass spectrometer in the electrospray ionization (ESI)-positive mode. The multiple reactions monitoring (MRM) mode was applied to monitor the following ion transitions: m/z 338.2→213.2 for aficamten and m/z 354.3→ 229.3 for metabolite CK-3834282 and its diastereomer CK-3834283. Note that the diastereomers were separated from chromatography during the analysis. The calibration curves of the plasma and urine samples were linear, ranging from 1 to 500 ng/mL, and the intra- and inter-run accuracies (RE%) and precisions (RSD%) were within ±15%. In addition, the selectivity, matrix effect, extraction recovery, carryover, and stability at different conditions were also fully evaluated.
The plasma PK parameters were evaluated using the plasma concentrations by the non-compartmental model approach using WinNonlin (version 8.3, Certara LP, Princeton, NJ, USA) and were summarized descriptively by the cohort and dose. […]

[1] = MD 5 mg once daily, mean ± SD, listed as Aficamten

SMILES: CCc1nc(-c2ccc3c(c2)CC[C@H]3NC(=O)c2cnn(C)c2)no1 [aficamten]
- AR_AUC (accumulation ratio based on AUC0-24) (MD 5 mg once daily, mean ± SD): 4.2 and 4.16
- AR_Cmax (accumulation ratio based on Cmax) (MD 5 mg once daily, mean ± SD): 1.8
- AR_AUC (accumulation ratio based on AUC0-24) [1]: 4.2 ± 0.4
- AR_Cmax (accumulation ratio based on Cmax) [1]: 1.8 ± 0.6
- t1/2 (MD 5 mg, day 14, plasma, mean ± SD): 76.8 ± 11.8 h
- tmax (tmax,ss) (MD 5 mg, day 14, plasma, median (minimum, maximum)): 0.5 (0.25, 2.0) h
- CL/F (MD 5 mg, day 14, mean ± SD): 3.8 ± 0.6 L/h
- V/F (MD 5 mg, day 14, mean ± SD): 412.7 ± 66.1 L
- CL/F (SAD 10 mg, mean ± SD): 3.0 ± 0.19 L/h
- V/F (SAD 10 mg, mean ± SD): 320.3 ± 51.3 L
- t1/2 (SAD 20 mg, plasma, mean ± SD): 77.3 ± 13.6 h
- CL/F (SAD 20 mg, mean ± SD): 3.4 ± 0.2 L/h
- V/F (SAD 20 mg, mean ± SD): 371.9 ± 55.4 L
- dose proportionality of plasma exposure (AUC0-24 and Cmax), in words (dose range 5–20 mg): dose-proportional
- Tmax (oral, MD 5 mg, day 1, plasma, median (minimum, maximum), read-out: tmax): 30 min
- AUC(0-inf) (oral, SAD 10 mg, plasma, mean ± SD): 3340 ± 223 ng·h/mL
- Tmax (oral, SAD 10 mg, plasma, median (minimum, maximum), read-out: tmax): 45 min
- AUC(0-inf) (oral, SAD 20 mg, plasma, mean ± SD): 5990 ± 415 ng·h/mL
- Tmax (oral, SAD 20 mg, plasma, median (minimum, maximum), read-out: tmax): 30 min
- AUC(0-t) (plasma, oral, 5 mg, MD 5 mg once daily, day 1, plasma, mean ± SD, N = 9, read-out: AUC0-24): 325 ± 32.6 ng·h/mL
- AUC(0-t) (plasma, oral, 5 mg, MD 5 mg once daily, day 14, plasma, mean ± SD, N = 9, read-out: AUC0-24): 1360 ± 215 ng·h/mL
- AUC(0-t) (plasma, oral, 5 mg, MD 5 mg, day 1, plasma, mean ± SD, read-out: AUC0-t): 324 ± 32.5 ng·h/mL
- Cmax (plasma, oral, 5 mg, MD 5 mg, day 1, plasma, mean ± SD, read-out: Cmax): 72.6 ± 19.5 ng/mL
- half-life (plasma, oral, 5 mg, MD 5 mg, day 1, plasma, mean ± SD, read-out: t1/2 (converted)): 1.61 ± 0.671 days
- Cmax (plasma, oral, 5 mg, MD 5 mg, day 14, plasma, mean ± SD, read-out: Cmax (Cmax,ss)): 122 ± 35.2 ng/mL
- half-life (plasma, oral, 5 mg, MD 5 mg, day 14, plasma, mean ± SD, read-out: t1/2 (converted)): ~3.21 days
- AUC(0-t) (plasma, oral, 10 mg, SAD 10 mg, plasma, mean ± SD, read-out: AUC0-t): 2780 ± 249 ng·h/mL
- Cmax (plasma, oral, 10 mg, SAD 10 mg, plasma, mean ± SD, read-out: Cmax): 115 ± 29.9 ng/mL
- half-life (plasma, oral, 10 mg, SAD 10 mg, plasma, mean ± SD, read-out: t1/2 (converted)): 3.08 ± 0.425 days
- AUC(0-t) (plasma, oral, 20 mg, SAD 20 mg, plasma, mean ± SD, read-out: AUC0-t): 5290 ± 372 ng·h/mL
- Cmax (plasma, oral, 20 mg, SAD 20 mg, plasma, mean ± SD, read-out: Cmax): 227 ± 71.8 ng/mL
- Tmax (plasma, oral, all cohorts, read-out: time of peak concentration (tmax day 1, tmax,ss day 14)): 30 to 45 min
- AUC(0-t) (plasma, po, 10 mg, SAD 10 mg single oral dose, fasted, plasma, mean ± SD, N = 6, read-out: AUC0-24): 670 ± 85 ng·h/mL
- AUC(0-t) (plasma, po, 20 mg, SAD 20 mg single oral dose, fasted, plasma, mean ± SD, N = 6, read-out: AUC0-24): 1300 ± 151 ng·h/mL
- half-life (plasma, po, across single oral dose 10 mg and 20 mg and 14 days QD 5 mg, read-out: mean half-life): 3.08 to 3.21 days
- half-life (plasma, po, single oral dose of 10 mg and 20 mg of aficamten, across both doses, read-out: t1/2 (arithmetic mean)): 3.08 to 3.21 days
